Data published in ChEMBL document CHEMBL3271981, “Potential histamine H2-receptor antagonists. 3. Methylhistamines” (J Med Chem, 1976).
Activity calls are given as the source filed them. The calls are words filed in the database; no cut-off is given here.

Legend:
[1] = test system: Rattus norvegicus; assay: In vivo antagonist activity at histamine H2 receptor in anesthetized rat assessed as inhibition of histamine-stimulated gastric acid secretion up to 256 umol/kg, iv; type: functional, organism-based; settings: Stomach
[2] = Retardation factor of the compound using EtOCH2CH2OH-HCl(11N)-H2O at ratio of 8:1:1 as solvent system by thin layer chromatography; type: physicochemical; settings: buffer
[3] = Retardation factor of the compound using MeOH-NH4OH-H2O at ratio of 6:1:1 as solvent system by thin layer chromatography; type: physicochemical
[4] = target: Histamine H1 receptor (Cavia porcellus) (UniProt P31389); assay: In vitro agonist activity at histamine H1 receptor in guinea pig ileum assessed as contractile response relative to histamine in presence of atropine; type: tissue-based
Histamine H1 receptor (Cavia porcellus), sequence (P31389 whole entry): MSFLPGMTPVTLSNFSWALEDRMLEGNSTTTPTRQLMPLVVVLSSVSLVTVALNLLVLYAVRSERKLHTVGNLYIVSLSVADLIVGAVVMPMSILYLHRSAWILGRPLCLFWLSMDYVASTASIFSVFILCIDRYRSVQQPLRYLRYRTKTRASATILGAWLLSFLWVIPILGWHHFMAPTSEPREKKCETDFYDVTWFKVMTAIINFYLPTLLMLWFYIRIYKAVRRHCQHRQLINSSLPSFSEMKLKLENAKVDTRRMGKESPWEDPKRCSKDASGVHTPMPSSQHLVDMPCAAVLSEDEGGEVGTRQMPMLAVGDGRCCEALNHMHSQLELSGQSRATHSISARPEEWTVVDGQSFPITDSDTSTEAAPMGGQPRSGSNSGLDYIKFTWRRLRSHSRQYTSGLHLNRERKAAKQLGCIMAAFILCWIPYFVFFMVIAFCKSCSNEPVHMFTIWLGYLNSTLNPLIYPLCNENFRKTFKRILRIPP

[5] = test system: Rattus norvegicus; assay: In vivo agonist activity at histamine H2 receptor in iv dosed anesthetized rat assessed as stimulation of gastric acid secretion relative to histamine; type: functional, Stomach
[6] = test system: Rattus norvegicus; assay: In vivo agonist activity at histamine H2 receptor in anesthetized rat assessed as stimulation of gastric acid secretion at 486 uml/kg, iv; type: functional, organism-based; settings: Stomach

Question: Which results are given for `Cl.Cn1cncc1CCN`?
Answer: Activity [1]: inactive; Rf [2]: 0.56; Rf [3]: 0.63; Activity [4]: < 0.01%; Activity [5]: <0.2%

Question: With `Cc1nc[nH]c1CCN.Cl` as the compound, how does the Rf [2] read?
Answer: Its Rf is 0.7.

Question: And the Rf [3]?
Answer: Its Rf is 0.56.

Question: What about the Activity [4] of the same compound?
Answer: The Activity was 0.23%.

Question: And the Activity [5]?
Answer: The Activity was 39%.

Question: Which results are given for `Cc1nc[nH]c1CCN(C)C.Cl`?
Answer: Rf [2]: 0.57; Rf [3]: 0.72; Activity [4]: 0.1%; Activity [5]: 3%

Question: With `CNCCc1[nH]cnc1C.Cl` as the compound, how does the Rf [2] read?
Answer: Its Rf is 0.7.

Question: And the Rf [3]?
Answer: The Rf was 0.51.

Question: What about the Activity [4] of the same compound?
Answer: Its Activity is 0.16%.

Question: What about the Activity [5] of the same compound?
Answer: Its Activity is 8.2%.

Question: Which Activity [4] does the source give for `CN(C)CCc1cnc[nH]1.Cl` here?
Answer: The Activity was 44%.

Question: And the Activity [5]?
Answer: Its Activity is 19%.

Question: With `Cc1ncc(CCN)[nH]1.Cl` as the compound, how does the Activity [4] read?
Answer: Its Activity is 16.5%.

Question: What about the Activity [5] of the same compound?
Answer: Its Activity is 2%.

Question: For `Cc1ncc(CCN(C)C)[nH]1.Cl`, which Activity [4] is on record?
Answer: Its Activity is 16.8%.

Question: And the Activity [5]?
Answer: Its Activity is 1.4%.

Question: For `CC(C)(CN)c1cnc[nH]1`, which Activity [1] is on record?
Answer: Its Activity is “inactive”.

Question: And the Activity [6]?
Answer: Its Activity is “inactive”.

Question: And the Activity [4]?
Answer: The Activity was < 0.001%.

Question: Which Rf [2] does the source give for `NCCc1c[nH]cn1` [HISTAMINE] here?
Answer: Its Rf is 0.7.

Question: And the Rf [3]?
Answer: The Rf was 0.52.

Question: For `CNCCc1cnc[nH]1.Cl`, which Rf [2] is on record?
Answer: Its Rf is 0.68.

Question: What about the Rf [3] of the same compound?
Answer: Its Rf is 0.46.

Question: And the Activity [4]?
Answer: Its Activity is 72%.

Question: And the Activity [5]?
Answer: The Activity was 74%.

Question: Which results are given for `CC(CN)c1cnc[nH]1.Cl` (stereo not given)?
Answer: Activity [1]: inactive; Activity [4]: 0.83%; Activity [5]: 0.4%

Question: For `Cl.Cl.Cn1cnc(CCN)c1` [N-METHYLHISTAMINE DIHYDROCHLORIDE], which Activity [1] is on record?
Answer: The Activity was “inactive”.

Question: And the Activity [4]?
Answer: The Activity was 0.5%.

Question: What does the source list for `CC(N)Cc1cnc[nH]1.Cl` (stereo not given)?
Answer: Activity [1]: inactive; Activity [4]: 0.36%; Activity [5]: 0.8%
